Entries after “also recorded” stand apart in the source; their conditions may differ.
Key:
MCF7-R cells = assay: Oxygen concentration under MCF7-R model agar half spheroid measured with Au microdisc electrode array; pharmacological modulation of cellular oxygen consumption; assay type: cell-based; details: for Change of measured oxygen concentration after addition: 100 μm [sic] NaN3, 200 μm [sic] DNP; for Measured O2 concentration (%) after NaN3: 100 μM NaN3, representative experiment
Method: Confluent plates of MCF7-R cells ere trypsinized and collected in a sterile 1 mL vial. The cell density and the total number of cells in the vial were estimated by cell counting using a hematocytometer. The cells were spun down in a centrifuge and the supernant medium removed. […] The vial with the cell-agar mixture was constantly kept in water bath at 37° C. to prevent the agar from gelling. Tiny hemispherical droplets (800-1000 μm diameter) of this mixture were deposited onto a Teflon® sheet using 0.5-2.5 μL pipette (Eppendorf, Hauppauge, N.Y.) to obtain hemispherical multicellular model agar spheroids. The Teflon® sheet with the model agar half spheroids was incubated in culture medium used for MCF7-R cell culture at 37° C. in 5% CO2. Henceforth, model agar half spheroids will be referred to simply as half spheroids.
The Au microdisc electrodes were polished using a fine emery paper to expose fresh electrode surface before each experiment. The polished electrodes were rinsed with DI water and allowed to dry in air (˜1 hour) after which a thin (˜10 μm) layer (spacer) of cellulose acetate was deposited. The electrodes were pre-conditioned electrochemically prior to starting the half spheroid experiment by continuous cyclic voltammograms (CV) until a stable measurement was reached (at least 50 CVs). The electrodes were calibrated for oxygen reduction current in PBS at different oxygen concentrations prior to the half spheroid experiment (henceforth, referred to as pre-calibration). A half spheroid was positioned on top of the electrode array and the oxygen concentrations inside the spheroid interrogated by linear scan voltammetry (LSV). Oxygen reduction currents under the half spheroid were recorded for half an hour after which the viability of cells inside the half spheroid was checked by pharmacological modulation of cellular oxygen consumption by administering metabolic poisons—NaN3 and DNP. At the end of the experiment the spheroid was removed and current corresponding to ambient oxygen concentration was recorded. The spheroid experiment was followed by a post experiment calibration (henceforth, referred to as post-calibration) of the electrodes to check for electrode drift. The LSV data recorded during these experiments was post processed to extract oxygen concentration values under the spheroid.
The Teflon® sheet on which half spheroids are was is removed from the incubating medium. A half spheroid was carefully transferred onto the electrode array using a curved edge of a pair of tweezers such that the radial electrode array was aligned along a spheroid radius (FIG. 8E). The positioning was done under a 2× stereo microscope to ensure that the spheroid is resting on its flat (bottom) edge. After the agar spheroid was positioned at the desired location a drop of low gelling agarose made in PBS maintained in liquid form at 37° C. was dispensed onto the spheroid from the top to secure its position and prevent it from moving with convective flow. PBS was added to the measurement device reservoir immediately after the spheroid position was secured. The time taken to position the spheroid from the time the half spheroid Petri-dish was removed from the incubator to the time when oxygen measurement is started is less than 3 minutes. During this time the cells in the spheroid (except the outer most shell) were not directly exposed to air.
Desired volumes of the NaN3, DNP and glucose solutions were gently added to the test solution using a disposable transfer pipettes. The solution was then homogenized by gentle circular movements induced by the same pipette for ˜10 s.

[1] = system: BAC1.2F5 macrophage cells; assay: Oxygen uptake by BAC1.2F5 macrophage cells measured with Pt microring electrode (pulse amperometry); assay type: cell-based, mouse
Method: A CHI 1030 8-channel potentiostat (CH Instruments Inc., Austin, TZ) was used to perform all electrochemical experiments: Cyclic Voltammetry (CV) and Pulse Amperometry (PA). The experimental setup was placed inside a custom built Faraday cage which was equipped with an XYZ stage for manipulation of the devices and a custom built thermostat to maintain the temperature inside the Faraday cage at 25° C. A Scion camera was mounted on top of the Faraday cage to visual observation of the sensing unit of interest. The microfabricated Pt microring electrode was used as the working electrode of the electrochemical cell. An Ag/AgCl reference and a Pt counter electrode were used to complete the cell.
Live mouse macrophage cells (BAC1.2F5) were used for cell experiments. Culture and disposal procedures of these cells are described by E1-Moatassim and Dubyak (el-Moatassim and Dubyak 1992) in detail.
A 100 μL drop of cell medium with suspended cells (105 BAC 1.2F5 mouse macrophages/mL) was gently added to the buffer with a disposable plastic pipette on top of the chip ˜5 mm from the targeted sensing unit. A simple hydrodynamic manipulation technique previously developed in our laboratory (Yoshida, Tohda et al. 2003) was then used to precisely position the selected cell(s) inside the targeted microring electrode.
˜500 μL of the required solution was added to the buffer using a disposable plastic pipette. The buffer was then homogenized by gentle circular movements induced by the same pipette for ˜10 seconds.
Continuous measurement will lead to sustained depletion of oxygen near the electrode. When cells are positioned near the electrodes this depletion of oxygen may perturb oxygen dependent cellular processes by decreasing the local availability of oxygen. To mitigate this undesirable effect, a pulse amperometry (PA) protocol was implemented. In this protocol the electrode potential is maintained at +0.5 V where no oxygen reduction occurs, before stepping to −0.55 V at which oxygen is reduced. The length of both pulses was chosen to be 250 ms. This restricts the time of depletion of oxygen to the cathodic pulses by allowing for replenishment of oxygen during the anodic pulses. This protocol ensures a sampling rate of 2 Hz that can assess metabolic processes occurring on the seconds time scale. Current proportional to local oxygen concentration is recorded and averaged at the end of each cathodic pulse for 50 ms. This recording period is long enough to obtain a representative value while also minimizing interference by 60 Hz noise.
To confirm that the observed variations in oxygen concentration indicated by the MEMS device reflect physiological processes of the cell(s), we performed another experiment where the metabolic rate of the cell(s) was pharmacologically modulated. […]

For `O=[N+]([O-])c1ccc(O)c([N+](=O)[O-])c1` [DNP, 2,4 dinitrophenol], the “Change of measured oxygen concentration after addition” value (MCF7-R cells; 15% cell volume fraction spheroid (FIG. 30)) was “decreases”, the “Change of measured oxygen concentration after addition” value (MCF7-R cells; 15% cell volume fraction spheroid with 5% ambient pO2 (FIG. 34)) was “decreases” and the “Change of measured oxygen concentration after addition” value (MCF7-R cells; 15% cell volume fraction spheroid with 10% ambient pO2 (FIG. 33)) was “decreases”. The “Change of measured oxygen concentrations after addition” value (MCF7-R cells; 30% cell volume fraction half spheroid, ~20% ambient O2, 100 μM sodium azide, then 200 μM DNP (final concentrations)) was “decreased rapidly; also recorded: decreases”, the “Change of measured oxygen concentration after addition” value (MCF7-R cells; 30% cell volume fraction spheroid as printed (FIG. 31), non-zero oxygen core) was “decreases” and the “Oxygen consumption by the cells” value (MCF7-R cells; MCF7-R cells in half spheroid, 100 μM NaN3, subsequent 200 μM DNP (final concentrations)) was “rapid increase”.

In the case of `O=C[C@H](O)[C@@H](O)[C@H](O)[C@H](O)CO` [D-Glucose], the “Change of measured oxygen concentration after addition of glucose to the PBS” value (MCF7-R cells; 25 mM D-Glucose added to PBS after the glucose-deprivation increase (FIG. 35)) is reported as “decrease”.

With `[N-]=[N+]=[N-]` [NaN3, sodium azide] the “Measured O2 concentration (%) after NaN3” value (MCF7-R cells; electrode E1, 610 μm from the center of the spheroid (outside spheroid), 30% cell volume fraction half spheroid) was 15.9%, the “Measured O2 concentration (%) after NaN3” value (MCF7-R cells; electrode E2, 470 μm from the center of the spheroid, 30% cell volume fraction half spheroid) was 14.3% and the “Measured O2 concentration (%) after NaN3” value (MCF7-R cells; electrode E3, 370 μm from the center of the spheroid, 30% cell volume fraction half spheroid) was 10.8%. The “Measured O2 concentration (%) after NaN3” value (MCF7-R cells; electrode E4, 270 μm from the center of the spheroid, 30% cell volume fraction half spheroid) was 9.9% and the “Measured O2 concentration (%) after NaN3” value (MCF7-R cells; electrode E5, 180 μm from the center of the spheroid, 30% cell volume fraction half spheroid) was 9.6%.

In the case of `C[C@@H]1O[C@@H](O[C@H]2C[C@@H](O)[C@]3(CO)[C@H]4[C@H](O)C[C@]5(C)[C@@H](C6=CC(=O)OC6)CC[C@]5(O)[C@@H]4CC[C@]3(O)C2)[C@H](O)[C@H](O)[C@H]1O` [ouabain], the “Current higher than that recorded before administration of ouabain” value ([1]; cluster of 6 cells inside microring) is reported as ~1.7 nA, the “Stabilized electrode current after addition of ouabain” value ([1]; cluster of 6 cells inside microring, ~7.1 nA before ouabain) is reported as ~8.8 nA and the “Oxygen concentration corresponding to stabilized current after ouabain” value ([1]; cluster of 6 cells inside microring, ~9% before ouabain) is reported as ~15%. The “Stationary local oxygen concentration immediately after administration of ouabain” value ([1]; representative of 3 experiments) was “increase”.

Source: US9488641B2, “Multicellular system and method for multiparametric analysis” (Case Western Reserve University, priority 2012, dated 2016)
